Measured values taken from US20190225670A1, “COMPOUNDS AND METHODS FOR ACTIVATING TIE2 SIGNALING” (ASCLEPIX THERAPEUTICS, LLC, priority 2016, published 2019).

Assays:
Erk1/2 = experiment: Western blot of phospho-Erk1/2 in MEC lysates treated with Ang2 and AXT107; format: cell-based, human; details: AXT107 and Ang2, all tested conditions
Experimental: For Ang1/2 signaling investigations, cell culture dishes (10 cm diameter) were coated with 5 μg/ml fibronectin (FN1; Sigma-Aldrich, St. Louis, Mo.) for two hours at 37° C. The FN1 solution was then removed by aspiration and 5×10^6 microvascular endothelial cells (MECs; Lonza, Walkersville, Md.) were plated in EGM-2MV media (Lonza) and cultured for forty-eight hours at 37° C. The cells were then serum starved for sixteen hours in serum-free EGM-2 base media (Lonza). AXT107 (0-100 μM, as indicated) was subsequently added to each culture and incubated for seventy-five minutes at 37° C. The cultures were then treated with 1 mM sodium vanadate (New England Biolabs, Ipswich, Mass.) for fifteen minutes to enhance the phospho-Tie2 signal followed by stimulation with 200 ng/ml angiopoietin (R&D Systems, Minneapolis, Minn.) for an additional fifteen minutes. […] Specific proteins were identified by Western blot, using the following primary antibodies: Cell Signaling—phospho-Tie2 (Y992) (Cat#: 4221), Tie2 (Cat#: 7403), phospho-Stat3 (Y705) (Cat#: 4113), Stat3 (Cat#: 4904), phospho-Akt (S473) (Cat#: 4058), Akt (Cat#: 9272), phospho-p44/42 MAPK (T202/Y204) (Cat#: 4370), p44/42 MAPK (Cat#: 4695); BD Transduction Laboratories—β1 integrin (Cat#: 610467); Millipore—α5 integrin (Cat#: AB1928) and detected with HRP-conjugated goat anti-rabbit and sheep anti-mouse secondary antibodies (GE healthcare).

Tie2 = experiment: Retinopathy of prematurity (ROP) mouse model, Tie2 activation; format: in vivo; details: no data given
Excerpt: To investigate the effects of AXT107 on Tie2 activation in vivo, retinopathy of prematurity (ROP) mouse model was used. In this system, P7 pups are placed in 75% 02 for five days, resulting in a loss of retinal capillary density from hyperoxia and a rapid induction of neovascularization upon the pup's return to normoxic conditions. […] Increased levels of Ang2 in the vitreous contribute to vessel leakage and macular edema in various retinopathies.

β1 integrin subunit = target: T1, β1 integrin subunit (Homo sapiens, UniProt P05556); experiment: Triton X-100 fractionation of MEC lysates, β1 integrin; format: cell-based
T1 construct: host or cells: human dermal microvascular endothelial cells (MEC)
Excerpt: Since β1 integrin is the only known β subunit to heterodimerize with the α5 integrin subunit, it unlikely that the as subunit, that was observed here in the insoluble fractions, originated from a heterodimeric integrin pair other than α5β1. Unfortunately, high background impaired the visualization of α5 integrin alone by immunofluorescence. Given the unexpected discovery that AXT107 dissociates the integrin heterodimer, this discovery was confirmed in several independent assays. […] Thus, interactions between Tie2 and heterodimerized α5β1 integrin appear to retain Tie2 at the EC-ECM interface.
The isolation of Triton X-100 soluble and insoluble fractions was performed using modifications to previously-described procedures (see, e.g., Lampugnani et al., J Cell Biol. 1995; 129(1):203-217). FN1-coated six-well plates were seeded with 2.5×10^6 cells and cultured for forty-eight hours, as described above. The cultures were then serum starved for ninety minutes in EBM-2 media, treated with 100 μM AXT107 or DMSO vehicle, and fifteen minutes with 1 mM sodium vanadate. The cells were then stimulated with either 100 ng/ml VEGFA, 400 ng/ml Ang2, or PBS for fifteen minutes. The plates were then transferred to ice and washed twice with cold dPBS containing Ca^2+ and Mg^2+ and twice with EBM-2 media. […] Samples were analyzed by western blot as described above. […]

T1 sequence (P05556 21-798): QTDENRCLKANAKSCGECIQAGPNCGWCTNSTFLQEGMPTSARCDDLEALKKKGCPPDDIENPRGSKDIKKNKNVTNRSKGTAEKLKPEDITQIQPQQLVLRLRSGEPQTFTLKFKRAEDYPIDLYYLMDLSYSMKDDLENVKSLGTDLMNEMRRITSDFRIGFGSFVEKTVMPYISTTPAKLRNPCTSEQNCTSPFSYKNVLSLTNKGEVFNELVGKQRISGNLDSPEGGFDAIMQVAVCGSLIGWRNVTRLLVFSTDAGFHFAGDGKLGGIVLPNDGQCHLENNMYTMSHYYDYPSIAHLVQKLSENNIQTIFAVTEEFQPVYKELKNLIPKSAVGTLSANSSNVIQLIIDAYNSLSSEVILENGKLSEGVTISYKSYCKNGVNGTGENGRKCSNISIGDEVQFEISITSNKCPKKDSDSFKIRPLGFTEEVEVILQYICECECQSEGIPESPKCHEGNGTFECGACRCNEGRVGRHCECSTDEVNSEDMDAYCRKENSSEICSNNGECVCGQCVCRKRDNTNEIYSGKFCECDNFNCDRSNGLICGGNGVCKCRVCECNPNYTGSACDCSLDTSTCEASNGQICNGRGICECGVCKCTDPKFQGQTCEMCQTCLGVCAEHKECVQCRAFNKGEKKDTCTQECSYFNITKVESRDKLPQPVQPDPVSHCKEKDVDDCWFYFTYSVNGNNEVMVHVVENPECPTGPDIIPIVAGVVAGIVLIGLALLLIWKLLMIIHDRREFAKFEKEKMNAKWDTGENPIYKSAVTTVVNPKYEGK

In the case of LRRFSTAPFAFIDINDVINF [AXT107], the Erk1/2 phosphorylation (Erk1/2) is reported as “remained constant”, the “activation of Tie2 by Ang2 in vivo” value (Tie2) is reported as “potentiates the activation of Tie2 by Ang2” and the “β1 integrin subunit in insoluble fraction” value (β1 integrin subunit; 100 μM AXT107, long exposure times, high antibody concentrations) is reported as “never observed in the insoluble fraction”. For the same sequence, the “interactions of immunoprecipitated α5 integrin with β1” value (β1 integrin subunit; Triton X-100 fractionated lysates after AXT107 treatment, data not shown) was “only found in the soluble fractions”.
